The supplement of paper PMC10307832

Assays:
Assay in all cases: relative viability (nuclei count vs DMSO), 5 days (fraction); higher = more cells survive
TGX 221 + Pemetrexed = compound: CC1=CN2C(=O)C=C(N=C2C(=C1)C(C)NC3=CC=CC=C3)N4CCOCC4 [TGX 221] + Nc1nc2[nH]cc(CCc3ccc(C(=O)N[C@@H](CCC(=O)O)C(=O)O)cc3)c2c(=O)[nH]1 [Pemetrexed] (partner 0.2 µM)
Outline: (§1)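 For relative viability, nuclei counts in treated wells were divided by those in vehicle wells. Lung cancer cell lines had been pin-tool dosed in 1536-well plates the day after seeding and cultured for 5 days, then fixed and stained in one step (final 0.05% Triton X-100, 1% formaldehyde, 1 ug/ml Hoechst) and imaged at 4×. Doses were one drug alone or a fixed anchor-drug dose plus five library-drug doses (not always all listed) in √10 steps, and values are duplicate-plate medians.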

[1] = compound: C1=CC=C(C(=C1)C2=CC=C(C=C2)C3=CSC4=C3C(=C(C(=O)N4)C#N)O)O + Cc1nc(NC(=O)N2CCC[C@H]2C(N)=O)sc1-c1ccnc(C(C)(C)C(F)(F)F)c1 [Alpelisib] (partner 2 µM)
Outline: as §1

[2] = compound: C1=CC=C(C(=C1)C2=CC=C(C=C2)C3=CSC4=C3C(=C(C(=O)N4)C#N)O)O + Cc1nc(Nc2ncc(C(=O)Nc3c(C)cccc3Cl)s2)cc(N2CCN(CCO)CC2)n1 [Dasatinib] (partner 0.075 µM)
Outline: as §1

TGX 221 + OSI-027 = compound: CC1=CN2C(=O)C=C(N=C2C(=C1)C(C)NC3=CC=CC=C3)N4CCOCC4 [TGX 221] + COc1cccc2cc(-c3nc([C@H]4CC[C@H](C(=O)O)CC4)n4ncnc(N)c34)[nH]c12 [OSI-027] (partner 0.5 µM)
Outline: as §1

Row | Cell Line | relative viability (TGX 221 + Pemetrexed; first compound 0.08 µM) | relative viability (TGX 221 + Pemetrexed; first compound 0.253 µM) | relative viability (TGX 221 + Pemetrexed; first compound 0.8 µM) | relative viability (TGX 221 + Pemetrexed; first compound 2.53 µM) | relative viability (TGX 221 + Pemetrexed; first compound 8 µM) | relative viability ([1]; first compound 0.08 µM) | relative viability ([1]; first compound 0.253 µM) | relative viability ([1]; first compound 0.8 µM) | relative viability ([1]; first compound 2.53 µM) | relative viability ([1]; first compound 8 µM) | relative viability ([2]; first compound 0.08 µM) | relative viability ([2]; first compound 0.253 µM) | relative viability ([2]; first compound 0.8 µM) | relative viability ([2]; first compound 2.53 µM) | relative viability ([2]; first compound 8 µM) | relative viability (TGX 221 + OSI-027; first compound 0.08 µM) | relative viability (TGX 221 + OSI-027; first compound 0.253 µM) | relative viability (TGX 221 + OSI-027; first compound 0.8 µM) | relative viability (TGX 221 + OSI-027; first compound 2.53 µM) | relative viability (TGX 221 + OSI-027; first compound 8 µM)
1 | LU99A | 0.198 | 0.173 | 0.173 | 0.232 | 0.133 | 0.613 | 0.5 | 0.538 | 0.507 | 0.527 | 0.528 | 0.608 | 0.61 | 0.563 | 0.442 | 0.275 | 0.313 | 0.328 | 0.346 | 0.293
2 | LXF-289 | 0.926 | 0.918 | 0.897 | 0.937 | 0.961 | 1.02 | 0.969 | 1.06 | 1.05 | 0.965 | 0.185 | 0.188 | 0.223 | 0.23 | 0.231 | 0.817 | 0.809 | 0.756 | 0.754 | 0.757
3 | NCI-H23 | 0.599 | 0.571 | 0.678 | 0.526 | 0.578 | 0.652 | 0.695 | 0.833 | 0.719 | 0.421 | 0.654 | 0.677 | 0.755 | 1.01 | 0.604 | 0.506 | 0.613 | 0.594 | 0.456 | 0.517
4 | NCI-H522 | 0.811 | 1.01 | 1.13 | 1 | 0.915 | – | – | – | – | – | 0.849 | 0.761 | 0.957 | 0.829 | 0.837 | 0.606 | 0.739 | 0.704 | 0.789 | 0.641
5 | NCI-H727 | – | – | – | – | – | 0.59 | 0.642 | 0.539 | 0.688 | 0.655 | 0.507 | 0.415 | 0.483 | 0.285 | 0.419 | 0.556 | 0.478 | 0.693 | 0.529 | 0.566
6 | NCI-H1299 | – | – | – | – | – | 1.01 | 1.08 | 1.14 | 1.08 | 0.699 | – | – | – | – | – | – | – | – | – | –
7 | NCI-H1623 | – | – | – | – | – | – | – | – | – | – | 0.484 | 0.548 | 0.496 | 0.603 | 0.546 | 0.44 | 0.402 | 0.423 | 0.389 | 0.477
8 | NCI-H1648 | – | 0.883 | 0.811 | 0.722 | 0.674 | – | – | – | – | – | – | – | – | – | – | 0.268 | – | 0.256 | 0.237 | 0.254
9 | NCI-H1650 | 0.394 | 0.408 | 0.324 | 0.336 | 0.28 | – | – | – | – | – | 0.253 | 0.393 | 0.349 | 0.322 | 0.318 | 0.648 | 0.55 | 0.737 | 0.661 | 0.529
10 | NCI-H1703 | – | – | – | – | – | 0.31 | 0.313 | 0.328 | 0.301 | 0.385 | – | – | – | – | – | – | – | – | – | –
11 | NCI-H2342 | 0.681 | 0.792 | 0.748 | 0.708 | 0.754 | – | – | – | – | – | 0.315 | 0.345 | 0.309 | 0.354 | 0.284 | 0.544 | 0.655 | 0.613 | 0.631 | 0.602
12 | SW 900 | – | 0.459 | 0.469 | 0.41 | 0.415 | – | – | – | – | – | 0.596 | 0.937 | 0.594 | 0.361 | 0.531 | 0.609 | 0.482 | 0.449 | 0.429 | 0.713
